Literature values as cited in patent US12084601B2, “Packaging patches having disinfecting sealing layer” (AMCOR FLEXIBLES NORTH AMERICA, INC., priority 2017, dated 2024).

Q: Which results are given for `[O][Cl+][O-]` [chlorine dioxide]?
A: Half-life of chlorine dioxide degradation (first order kinetics) (ambient room light and temperature, depending on initial ClO2 concentration): 2 to 3 h; Time for chlorine dioxide concentration in the package to reach levels sufficiently low for safe opening (spontaneous degradation, prior packages): 12 to 48 h
